# Measured values taken from patent US11897851B2, “Heterocyclic GLP-1 agonists” (Gasherbrum Bio, Inc., priority 2021, dated 2024).
# Biological target: T1, GLP-1 Receptor (Homo sapiens, UniProt P43220)
# T1 construct: host or cells: HEK293/GLP1R/CRE-LUC (HEK293/CRE-Luc stably expressing the GLP-1 receptor)
# Assay: GLP-1R agonist cAMP stimulation assay (HEK293/GLP1R/CRE-LUC cells, Cisbio cAMP dynamic 2 kit);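 note: compounds tested in half-log serial dilution, cAMP detected with cAMP-d2 and anti-cAMP cryptate antibody reagents after 1 h at room temperature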
# Assay type: cell-based
# Settings: HEK293/CRE-Luc cell line stably expressing the GLP-1 Receptor; 1000 cells/well; 30 min at 37° C.; 0.5 mM IBMX, 0.1% BSA; read-out: GLP1R cAMP Stimulation DR: EC50
# T1 sequence (P43220 24-463, species assumed): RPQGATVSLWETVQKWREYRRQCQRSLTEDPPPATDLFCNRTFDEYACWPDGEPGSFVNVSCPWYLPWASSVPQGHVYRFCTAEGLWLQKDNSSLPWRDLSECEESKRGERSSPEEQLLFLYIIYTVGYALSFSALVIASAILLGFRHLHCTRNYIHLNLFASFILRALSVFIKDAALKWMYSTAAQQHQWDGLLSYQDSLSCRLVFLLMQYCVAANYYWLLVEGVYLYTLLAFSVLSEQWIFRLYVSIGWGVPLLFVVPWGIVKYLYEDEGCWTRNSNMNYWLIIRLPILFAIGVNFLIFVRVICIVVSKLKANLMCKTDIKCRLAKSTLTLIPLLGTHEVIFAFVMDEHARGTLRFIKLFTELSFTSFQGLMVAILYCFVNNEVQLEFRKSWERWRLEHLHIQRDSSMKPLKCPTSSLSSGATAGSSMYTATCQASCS
row,EC50 [nM],SMILES
1,0.043,"CC1(c2ccc(Cl)cc2F)Oc2cccc(C3CCN(Cc4ncc(/C=C/C(=O)O)n4Cc4ccccc4)CC3)c2O1 (centres unmarked) [Compound 151, (E)-3-(1-benzyl-2-((4-(2-(4-chloro-2-fluorophenyl)-2-methylbenzo[d][1,3]dioxol-4-yl)piperidin-1-yl)methyl)-1H-imidazol-5-yl)acrylic acid]"
2,0.2,"CCn1cncc1Cn1c(/C=C/C(=O)O)cnc1CN1CCC(c2cccc3c2O[C@](C)(c2ccc(Cl)cc2F)O3)CC1 [Compound 139b, (R,E)-3-(2-((4-(2-(4-chloro-2-fluorophenyl)-2-methylbenzo[d][1,3]dioxol-4-yl)piperidin-1-yl)methyl)-1-((1-ethyl-1H-imidazol-5-yl)methyl)-1H-imidazol-5-4)acrylic acid]"
3,0.56,"COCCn1c(/C(F)=C/C(=O)O)cnc1CN1CCC(c2cccc(OCc3ccc(Cl)cc3F)n2)CC1 [Compound 221, (Z)-3-(2-((4-(6-((4-chloro-2-fluorobenzyl)oxy)pyridin-2-yl)piperidin-1-yl)methyl)-1-(2-methoxyethyl)-1H-imidazol-5-yl)-3-fluoroacrylic acid]"
4,3.7,"C[C@]1(c2ccc(Cl)cc2F)Oc2cccc(C3CCN(Cc4ncc(-c5nnc(C(F)(F)F)[nH]5)cc4C4CCOC4)CC3)c2O1 (stereo partly drawn) [Compound 282, 2-({4-[(2S)-2-(4-chloro-2-fluorophenyl)-2-methyl-2H-1,3-benzodioxol-4-yl]piperidin-1-yl}methyl)-3-(oxolan-3-yl)-5-[5-(trifluoromethyl)-4H-1,2,4-triazol-3-yl]pyridine]"
5,0.3,"C/C(=C\c1nnc(CN2CCC(c3cccc4c3OC(C)(c3ccc(Cl)cc3F)O4)CC2)n1C[C@@H]1CCO1)C(=O)O (stereo partly drawn) [Compound 137a, (E)-3-(5-((4-(2-(4-chloro-2-fluorophenyl)-2-methylbenzo[d][1,3]dioxol-4-yl)piperidin-1-yl)methyl)-4-(((S)-oxetan-2-yl)methyl)-4H-1,2,4-triazol-3-yl)-2-methylacrylic acid]"
6,1.9,"CC1(c2ccc(Cl)cc2F)Oc2cccc(C3CCN(Cc4ncc(/C=C/C(=O)O)n4Cc4cccnc4C(F)(F)F)CC3)c2O1 (centres unmarked) [Compound 146, (E)-3-(2-((4-(2-(4-chloro-2-fluorophenyl)-2-methylbenzo[d][1,3]dioxol-4-yl)piperidin-1-yl)methyl)-1-((2-(trifluoromethyl)pyridin-3-yl)methyl)-1H-imidazol-5-yl)acrylic acid]"
7,0.0061,"C[C@]1(c2ccc(Cl)cc2F)Oc2cccc(C3CCN(Cc4ncc(-c5nnc(C(F)(F)F)[nH]5)cc4CC4(C#N)CC4)CC3)c2O1 [Compound 258, 1-{[2-({4-[(2S)-2-(4-chloro-2-fluorophenyl)-2-methyl-2H-1,3-benzodioxol-4-yl]piperidin-1-yl}methyl)-5-[5-(trifluoromethyl)-4H-1,2,4-triazol-3-yl]pyridin-3-yl]methyl}cyclopropane-1-carbonitrile]"
8,0.38,"CCn1cncc1Cn1c(CCC(=O)O)nnc1CN1CCC(c2cccc3c2OC[C@@H](c2ccc(Cl)cc2)O3)CC1 [Compound 246, (R)-3-(5-((4-(2-(4-chlorophenyl)-2,3-dihydrobenzo [b][1,4]dioxin-5-yl)piperidin-1-yl)methyl)-4-((1-ethyl-1H-imidazol-5-yl)methyl)-4H-1,2,4-triazol-3-yl)propanoic acid]"
9,0.091,"COCCCn1c(/C=C/C(=O)O)cnc1CN1CCC(c2cccc3c2OC(C)(c2ccc(Cl)cc2F)O3)CC1 (centres unmarked) [Compound 195, (E)-3-(2-((4-(2-(4-chloro-2-fluorophenyl)-2-methylbenzo[d][1,3]dioxol-4-yl)piperidin-1-yl)methyl)-1-(3-methoxypropyl)-1H-imidazol-5-yl)acrylic acid]"
10,0.54,"O=C(O)/C=C/c1cnc(CN2CCC(c3cccc4c3OC[C@@H](c3ccc(Cl)cc3)O4)CC2)n1Cc1cccnc1 [Compound 209a, (R,E)-3-(2-((4-(2-(4-chlorophenyl)-2,3-dihydrobenzo[b][1,4]dioxin-5-yl)piperidin-1-yl)methyl)-1-(pyridin-3-ylmethyl)-1H-imidazol-5-yl)acrylic acid]"
11,0.11,"CC#CCn1c(/C=C/C(=O)O)cnc1CN1CCC(c2cccc3c2OC(C)(c2ccc(Cl)cc2F)O3)CC1 (centres unmarked) [Compound 193, (E)-3-(1-(but-2-yn-1-yl)-2-((4-(2-(4-chloro-2-fluorophenyl)-2-methylbenzo[d][1,3]dioxol-4-yl)piperidin-1-yl)methyl)-1H-imidazol-5-yl)acrylic acid]"
12,1.38,"Cc1cc(-c2nnc(C(F)(F)F)[nH]2)cnc1CN1CCC(c2cccc3c2O[C@@](C)(c2ccc(C#N)cc2F)O3)CC1 [Compound 286, 3-fluoro-4-[(2S)-2-methyl-4-[1-({3-methyl-5-[5-(trifluoromethyl)-4H-1,2,4-triazol-3-yl]pyridin-2-yl}methyl)piperidin-4-yl]-2H-1,3-benzodioxol-2-yl]benzonitrile]"
13,0.0069,"C[C@]1(c2ccc(Cl)cc2F)Oc2cccc(C3CCN(Cc4ncc(/C=C/C(=O)O)n4C[C@@H]4CCS4(=O)=O)CC3)c2O1 (single isomer, unassigned) [Compound 173a]"
14,7.7,"COCCc1cc(-c2noc(=O)[nH]2)cnc1CN1CCC(c2cccc3c2OC(C)(c2ccc(Cl)cc2F)O3)CC1 (centres unmarked) [Compound 268, 3-[6-({4-[2-(4-chloro-2-fluorophenyl)-2-methyl-2H-1,3-benzodioxol-4-yl]piperidin-1-yl}methyl)-5-(2-methoxyethyl)pyridin-3-yl]-4,5-dihydro-1,2,4-oxadiazol-5-one]"
15,0.53,"C[C@@H](c1ccccc1)n1c(/C=C/C(=O)O)cnc1CN1CCC(c2cccc3c2OC(C)(c2ccc(Cl)cc2F)O3)CC1 (stereo partly drawn) [Compound 152, (E)-3-(2-((4-(2-(4-chloro-2-fluorophenyl)-2-methylbenzo[d][1,3]dioxol-4-yl)piperidin-1-yl)methyl)-1-((S)-1-phenylethyl)-1H-imidazol-5-yl)acrylic acid]"
16,> 1000,"O=C(O)/C=C/c1cnc(CN2CCC(c3cccc4c3OC[C@@H](c3ccc(Cl)cc3)O4)CC2)n1Cc1ccno1 [Compound 187a, (R,E)-3-(2-((4-(2-(4-chlorophenyl)-2,3-dihydrobenzo [b][1,4]dioxin-5-yl)piperidin-1-yl)methyl)-1-(isoxazol-5-ylmethyl)-1H-imidazol-5-yl)acrylic acid]"
17,0.26,"Cc1ncc(Cn2c(/C=C/C(=O)O)cnc2CN2CCC(c3cccc4c3OC(C)(c3ccc(Cl)cc3F)O4)CC2)o1 (centres unmarked) [Compound 202, (E)-3-(2-((4-(2-(4-chloro-2-fluorophenyl)-2-methylbenzo[d][1,3]dioxol-4-yl)piperidin-1-yl)methyl)-1-((2-methyloxazol-5-yl)methyl)-1H-imidazol-5-yl)acrylic acid]"
18,35,"O=C(O)C1CC1c1cnc(CN2CCC(c3cccc4c3OC[C@@H](c3ccc(Cl)cc3)O4)CC2)n1C[C@@H]1CCO1 (stereo partly drawn) [Compound 248, 2-(2-((4-((R)-2-(4-chlorophenyl)-2,3-dihydrobenzo[b][1,4]dioxin-5-yl)piperidin-1-yl)methyl)-1-(((S)-oxetan-2-yl)methyl)-1H-imidazol-5-yl)cyclopropane-1-carboxylic acid]"
19,0.093,"O=C(O)/C=C/c1cnc(CN2CCC(c3cccc(OCc4ccc(Cl)cc4F)n3)CC2)n1C[C@@H]1CCO1 [Compound 103a, (S,E)-3-(2-((4-(6-((4-chloro-2-fluorobenzyl)oxy)pyridin-2-yl)piperidin-1-yl)methyl)-1-(oxetan-2-ylmethyl)-1H-imidazol-5-yl)acrylic acid]"
20,1.6,"Cc1ncoc1Cn1c(/C=C/C(=O)O)cnc1CN1CCC(c2cccc3c2OC[C@@H](c2ccc(Cl)cc2)O3)CC1 [Compound 199a, (R,E)-3-(2-((4-(2-(4-chlorophenyl)-2,3-dihydrobenzo [b][1,4]dioxin-5-yl)piperidin-1-yl)methyl)-1-((4-methyloxazol-5-yl)methyl)-1H-imidazol-5-yl)acrylic acid]"
21,38,"CC(=CC(=O)O)c1nnc(CN2CCC(c3cccc(OCc4ccc(Cl)cc4F)n3)CC2)n1CC1CCC1 [Compound 236, 3-(5-((4-(6-((4-chloro-2-fluorobenzyl)oxy)pyridin-2-yl)piperidin-1-yl)methyl)-4-(cyclobutylmethyl)-4H-1,2,4-triazol-3-yl)but-2-enoic acid]"
22,0.364,"COCCn1c(/C=C/C(=O)O)cnc1CN1CCC(c2cccc(OCc3ccc(Cl)cc3F)n2)CC1 [Compound 106, (E)-3-(2-((4-(6-((4-Chloro-2-fluorobenzyl)oxy)pyridin-2-yl)piperidin-1-yl)methyl)-1-(2-methoxyethyl)-1H-imidazol-5-yl)acrylic acid]"
23,0.033,"C[C@]1(c2ccc(Cl)cc2F)Oc2cccc(C3CCN(Cc4ncc(/C=C/C(=O)O)n4C[C@@H]4CCO4)CC3)c2O1 [Compound 135a, (E)-3-(2-((4-((S)-2-(4-chloro-2-fluorophenyl)-2-methylbenzo[d][1,3]dioxol-4-yl)piperidin-1-yl)methyl)-1-(((S)-oxetan-2-yl)methyl)-1H-imidazol-5-yl)acrylic acid]"
24,0.87,"CCOCCc1cc(-c2nnc(C(F)(F)F)[nH]2)cnc1CN1CCC(c2cccc3c2O[C@@](C)(c2ccc(Cl)cc2F)O3)CC1 [Compound 287, 2-({4-[(2S)-2-(4-chloro-2-fluorophenyl)-2-methyl-2H-1,3-benzodioxol-4-yl]piperidin-1-yl}methyl)-3-(2-ethoxyethyl)-5-[5-(trifluoromethyl)-4H-1,2,4-triazol-3-yl]pyridine]"
25,0.12,"COc1cccc(Cn2c(/C=C/C(=O)O)cnc2CN2CCC(c3cccc4c3OC(C)(c3ccc(Cl)cc3F)O4)CC2)c1 (centres unmarked) [Compound 149, (E)-3-(2-((4-(2-(4-chloro-2-fluorophenyl)-2-methylbenzo[d][1,3]dioxol-4-yl)piperidin-1-yl)methyl)-1-(3-methoxybenzyl)-1H-imidazol-5-yl)acrylic acid]"
26,0.14,"CC1(c2ccc(Cl)cc2F)Oc2cccc(C3CCN(Cc4ncc(/C=C/C(=O)O)n4CC4CC4)CC3)c2O1 (centres unmarked) [Compound 162, (E)-3-(2-((4-(2-(4-chloro-2-fluorophenyl)-2-methylbenzo[d][1,3]dioxol-4-yl)piperidin-1-yl)methyl)-1-(cyclopropylmethyl)-1H-imidazol-5-yl)acrylic acid]"
